US10919851B2, “2-pyrrolidine phenylhydrazides antibacterial agents” (ABAC THERAPEUTICS, S.L, priority 2016, dated 2021)
In brackets after ≈: the same amount, converted by molar mass.

Experiments:
Enterococcus faecium = experiment: MIC, standard microtiter dilution method (CLSI M07-A9); assay type: cell-based; conditions: media with 2.5% lysed horse blood, 37° C., 24 hours, read-out: MIC E. faecium
Protocol: (§1) The products of the present invention were tested for their activity against Acinetobacter baumannii (A. baumannii) as well as against the following bacteria: Staphylococcus aureus (S. aureus), Streptococcus pneumoniae (S. pneumoniae), Enterococcus faecium (E. faecium), Pseudomonas aeruginosa (P. aeruginosa), Klebsiella pneumoniae (K. pneumoniae) and Escherichia coli (E. coli). Minimal inhibitory concentrations (MICs) were determined using a standard microtiter dilution method, according to the Clinical and Laboratory Standards Institute (CLSI) procedures, in particular according to […]-A9: “Methods for Dilution Antimicrobial Susceptibility Tests for Bacteria That Grow Aerobically; Approved Standard-Ninth Edition”. Briefly, compounds were dissolved with dimethyl sulfoxide (DMSO) at 12.8 mg/mL. Serial two-fold dilutions of compounds were performed in DMSO and 1 μl of each dilution were transferred into microtiter culture plates, followed by 100 μl of inoculated culture media to give a final microorganism concentration of 5×10^5 colony-forming units/mL. Plates were incubated at 37° C. for 24 hours and MICs determined as the lowest compound concentration that inhibited growth. Media used in determinations were Cation adjusted Mueller-Hinton Broth for all the microorganisms except for S. pneumoniae and E. faecium whose culture media were supplemented with 2.5% of lysed horse blood. Incubations were performed at air atmosphere except S. pneumoniae cultures that were incubated with 5% CO2 atmosphere.

Klebsiella pneumoniae = experiment: as above; assay type: cell-based; conditions: Cation adjusted Mueller-Hinton Broth, 37° C., 24 hours, read-out: MIC K. pneumoniae
Protocol: as §1

Pseudomonas aeruginosa = experiment: as above; assay type: cell-based; conditions: Cation adjusted Mueller-Hinton Broth, 37° C., 24 hours, read-out: MIC P. aeruginosa
Protocol: as §1

Escherichia coli = experiment: as above; assay type: cell-based; conditions: Cation adjusted Mueller-Hinton Broth, 37° C., 24 hours
Protocol: as §1

Acinetobacter baumannii = experiment: as above; assay type: cell-based; conditions: Cation adjusted Mueller-Hinton Broth, 37° C., 24 hours
Protocol: as §1

Streptococcus pneumoniae = experiment: as above; assay type: cell-based; conditions: media with 2.5% lysed horse blood, 5% CO2, 37° C., 24 hours, read-out: MIC S. pneumoniae
Protocol: as §1

Staphylococcus aureus = experiment: as above; assay type: cell-based; conditions: Cation adjusted Mueller-Hinton Broth, 37° C., 24 hours, read-out: MIC S. aureus
Protocol: as §1

SMILES | MIC (Enterococcus faecium) | MIC (Klebsiella pneumoniae) | MIC (Pseudomonas aeruginosa) | MIC (Escherichia coli) | MIC (Acinetobacter baumannii) | MIC (Streptococcus pneumoniae) | MIC (Staphylococcus aureus) | melting point
NC(=O)N1CCC[C@@H]1C(=O)NNc1ccc(F)cc1 [Example 2, (R)-2-(2-(4-fluorophenyl)hydrazinecarbonyl)pyrrolidine-1-carboxamide] | > 128 µg/mL | > 128 µg/mL | > 128 µg/mL | > 128 µg/mL | 4 µg/mL (≈ 15 µM) | > 128 µg/mL | > 128 µg/mL | –
NC(=O)N1CCC[C@H]1C(=O)NNc1ccc(F)cc1 [Example 3, (S)-2-(2-(4-fluorophenyl) hydrazinecarbonyl) pyrrolidine-1-carboxamide] | > 128 µg/mL | > 128 µg/mL | > 128 µg/mL | > 128 µg/mL | 4 µg/mL (≈ 15 µM) | > 128 µg/mL | > 128 µg/mL | –
NC(=O)N1CCCC1C(=O)NNc1ccc(F)cc1 (stereo not drawn) [Example 4, 2-(2-(4-fluorophenyl)hydrazinecarbonyl)pyrrolidine-1-carboxamide] | > 128 µg/mL | > 128 µg/mL | > 128 µg/mL | > 128 µg/mL | 2 µg/mL (≈ 7.51 µM) | > 128 µg/mL | > 128 µg/mL | 140 to 144 °C
NC(=O)N1CCCC1C(=O)NNc1ccc(OC(F)(F)F)cc1 (stereo not drawn) [Example 7, 2-(2-(4-(trifluoromethoxy)phenyl)hydrazinecarbonyl)pyrrolidine-1-carboxamide] | > 128 µg/mL | > 128 µg/mL | > 128 µg/mL | > 128 µg/mL | 8 µg/mL (≈ 24.1 µM) | > 128 µg/mL | 128 µg/mL (≈ 385 µM) | –
NC(=O)N1CCCC1C(=O)NNc1ccc(Cl)cc1F (stereo not drawn) [Example 9, 2-(2-(4-chloro-2-fluorophenyl)hydrazinecarbonyl)pyrrolidine-1-carboxamide] | > 128 µg/mL | > 128 µg/mL | > 128 µg/mL | > 128 µg/mL | 8 µg/mL (≈ 26.6 µM) | > 128 µg/mL | > 128 µg/mL | –
COc1ccc(NNC(=O)C2CCCN2C(N)=O)cc1 (stereo not drawn) [Example 10, 2-(2-(4-methoxyphenyl)hydrazinecarbonyl)pyrrolidine-1-carboxamide] | > 128 µg/mL | > 128 µg/mL | > 128 µg/mL | > 128 µg/mL | 2 µg/mL (≈ 7.19 µM) | > 128 µg/mL | > 128 µg/mL | –
NC(=O)N1CCCC1C(=O)NNc1ccc2c(c1)OCCO2 (stereo not drawn) [Example 11, 2-(2-(2,3-dihydrobenzo[b][1,4]dioxin-6-yl) hydrazinecarbonyl)pyrrolidine-1-carboxamide] | > 128 µg/mL | > 128 µg/mL | > 128 µg/mL | > 128 µg/mL | 8 µg/mL (≈ 26.1 µM) | > 128 µg/mL | > 128 µg/mL | –
CC(=O)N1CCC[C@@H]1C(=O)NNc1ccc(F)cc1 [Example 14, (R)-1-acetyl-N′-(4-fluorophenyl)pyrrolidine-2-carbohydrazide] | > 128 µg/mL | > 128 µg/mL | > 128 µg/mL | > 128 µg/mL | 2 µg/mL (≈ 7.54 µM) | > 128 µg/mL | > 128 µg/mL | –
O=C(NNc1ccc(F)cc1)C1CCCN1O (stereo not drawn) [Example 15, N′-(4-fluorophenyl)-1-hydroxypyrrolidine-2-carbohydrazide] | > 128 µg/mL | > 128 µg/mL | > 128 µg/mL | > 128 µg/mL | 1 µg/mL (≈ 4.18 µM) | > 128 µg/mL | > 128 µg/mL | –
CN1CCCC1(C)C(=O)NNc1ccc(F)cc1 (stereo not drawn) [Example 16, N′-(4-fluorophenyl)-1,2-dimethylpyrrolidine-2-carbohydrazide] | > 128 µg/mL | > 128 µg/mL | > 128 µg/mL | > 128 µg/mL | 0.25 µg/mL (≈ 0.995 µM) | > 128 µg/mL | > 128 µg/mL | –
Cl.O=C(NNc1ccc(F)cc1)C1CCCN1C(=O)N1CCNCC1 (stereo not drawn) [Example 18, N′-(4-fluorophenyl)-1-(piperazine-1-carbonyl)pyrrolidine-2-carbohydrazide hydrochloride] | > 128 µg/mL | > 128 µg/mL | > 128 µg/mL | > 128 µg/mL | 8 µg/mL | > 128 µg/mL | 128 µg/mL | –
O=C(NNc1ccc(F)cc1)[C@@H]1CCCN1CC1CC1 [Example 25, (S)-1-(cyclopropylmethyl)-N′-(4-fluorophenyl)pyrrolidine-2-carbohydrazide] | > 128 µg/mL | > 128 µg/mL | > 128 µg/mL | > 128 µg/mL | 0.25 µg/mL (≈ 0.901 µM) | > 128 µg/mL | > 128 µg/mL | –
CN1CC2CC2C1C(=O)NNc1ccc(F)cc1 (stereo not drawn) [Example 26, N′-(4-fluorophenyl)-3-methyl-3-azabicyclo[3.1.0]hexane-2-carbohydrazide] | > 128 µg/mL | > 128 µg/mL | > 128 µg/mL | > 128 µg/mL | 0.25 µg/mL (≈ 1 µM) | > 128 µg/mL | > 128 µg/mL | –
Cl.N=C(N)N1CCCC1C(=O)NNc1ccc(F)cc1 (stereo not drawn) [Example 30, 2-(2-(4-fluorophenyl)hydrazinecarbonyl)pyrrolidine-1-carboximidamide hydrochloride] | > 128 µg/mL | > 128 µg/mL | > 128 µg/mL | > 128 µg/mL | 2 µg/mL | > 128 µg/mL | > 128 µg/mL | –
